Measured values: US12534487B2, “Compounds for use as iron(III) MRI contrast agents” (The Research Foundation for The State University of New York, priority 2017, dated 2026)
Blank lines part the entries; values can stand above or below the compound they belong to.

Legend:
mice = test: In vivo MRI contrast enhancement in mice at 4.7 T; parameters: species or system mouse
Procedure: The necessary solubility of the complexes depends on their effectiveness in producing contrast. For Fe(III) T1 contrast agents that have good relaxivity, the complexes need 100 μM-2 mM solubility. However, other additives such as human serum albumin (has) or meglumine may be used to increase solubility and/or increase relaxivity. Solubility is generally measured in aqueous solution at near neutral pH (e.g., 6.5 to 7.5, including all 0.1 pH values and ranges therebetween) in 100 mM NaCl with 25 mM carbonate and 0.4 mM phosphate. The dose of the composition to be used will necessarily be dependent upon the needs of the individual to whom the composition of the disclosure is to be administered. These factors include, but are not necessarily limited to the weight, age, sex, and medical history of the individual. Shown in FIGS. 15, 16, 17, 18, 19, 20 are data from in vivo MRI studies done in mice. The contrast agent, Fe(TOB) was injected at 0.20 mL of 6.3 mM Fe-TOB-HSA (10.5 mg of HAS or two equivalents of megluamine). […] In vivo imaging in mice. Efficacy of the Fe(III) complexes for in vivo contrast enhancement was studied on at 4.7 T Bruker preclinical MRI in a mouse model (BABC/cJ, Jackson Laboratory). Sealed phantoms were included for imaging sessions for signal normalization. Prior to administration of contrast agents, scans were acquired to serve as baseline values of enhancement. […] Compounds were injected intravenously via tail vein at a dose of 50 μmol [Fe]/kg and MR data were acquired continuously for up to 1 hour after injection to study distribution and clearance kinetics. Thus, 0.2 mL of a 6 mM stock solution was injected into the mouse or 0.05 mmol/Kg. Additional scans were acquired at 3 and 6 hours post-injection to characterize slower clearance rates by the biliary system. The FDA-approved […] contrast agent gadopentetate dimeglumine (Gd-DTPA, Magnevist®) was injected into a separate cohort of mice at 50 μmol [Gd]/kg for comparison. For SPGR datasets, signal intensities were normalized to the phantoms and signal increase for each organ was measured, as well as an increase in contrast-to-noise ratios as compared to back muscle. Fe(III) concentrations were estimated by calculating the increase in T1 rates and dividing by the compound's relaxivity value as determined in vitro.

[1] = stated in text without conditions; cited from earlier work
[2] = Benzoate oxidation with peroxide and ascorbate (ROS production); details: 50 μM complex, 50 μM H2O2, 50 μM ascorbate, pH 7.2; [Fe(EDTA)]− oxidation set at 100%
Procedure: Benzoate oxidation with 50 μM complex, 50 μM H2O2 and 50 μM ascorbate at pH 7.2. [Fe(EDTA)]^− oxidation is set at 100%.
It is desirable that the Fe(III) complex remain in the trivalent oxidation state and not be reduced by, for example, peroxide, superoxide, ascorbate, or by glutathione at concentrations present in the extracellular medium of cells such as, for example, mammalian cells (e.g., human cells). Normally, a redox potential more negative than zero mV (<0 mV) versus NHE is sufficient. If the complex were to be reduced to Fe(II) and the Fe(II) complex and the complex has a positive redox potential versus NHE, reactive oxygen species may be produced, for example, as shown in FIG. 8. For example, [Fe(EDTA)]—has a redox potential of approximately 300 mV and produces ROS as shown by the assay in FIG. 11.

[3] = Phantom (in vitro) MR imaging at 4.7 T: T1 and T2 relaxivity; assay type: physicochemical; details: neutral pH, Hepes buffer, 37° C.
Procedure: Eq. 2 predicts that greater numbers of bound water molecules and rapid ligand exchange rate constants (short lifetimes for bound water (Tm)) are advantageous. […] There is an analogous relationship for second-sphere waters although the number and residence time is not well defined. The R1 and R2 relaxivity (from T1 and T2 relaxation rate constants at 4.7 T at 37° C. is shown for several complexes in FIG. 13 and FIG. 14. Data on a 3 Tesla MRI scanner are shown in FIG. 21. Table 1 summarizes R1 and R2 relaxivity data for several Fe(III) complexes.
Preparation of Samples for Phantom MR Imaging: Samples for phantom imaging experiments contained 50-500 μM complex, 20 mM HEPES and 100 mM NaCl. […]
Phantom (in vitro) imaging at 4.7 T. MRI acquisitions were performed using a General Electric 4.7T/33 cm horizontal bore magnet (GE NMR instruments, Fremont, CA) incorporating AVANCE digital electronics (Bruker BioSpec platform with ParaVision v 3.0.2 acquisition software, Bruker Medical, Billerica, MA). […] Signal intensities at each repetition time were sampled by taking the mean intensity within regions of interest (ROI's) using commercially available image processing software (Analyze 7.0, AnalyzeDirect, Overland, KS), and R1 and SMAX were calculated by nonlinear fitting of the equation using Matlab's Curve Fitting Toolbox (Matlab 7.0, MathWorks Inc., Natick, MA). […]

brain tumors = test: MRI scans of mice with brain tumors; assay type: in vivo, mice (C57BL/6NCr); details: C57BL/6NCr mice, 0.05 or 0.1 mmol/kg
Procedure: Mice were dosed with Fe(TOB) at 0.05 mmol/kg Fe(TOB) complex or 0.1 mmol/kg Fe(TOB) complex.

[4] = 50 μmol/kg i.v., 4.7 T, compared with the other agents

SMILES: CNC[C@H](O)[C@@H](O)[C@H](O)[C@H](O)CO.CNC[C@H](O)[C@@H](O)[C@H](O)[C@H](O)CO.O=C([O-])CN(CCN(CC(=O)[O-])CC(=O)O)CCN(CC(=O)[O-])CC(=O)O.[Gd+3] [Gd(DTPA), gadopentetate dimeglumine, reference compound]
T1 contrast in blood (mice; [4]): produces larger contrast in blood

Benzoate oxidation / ROS production [2]: produces ROS
SMILES: O=C([O-])CN(CCN(CC(=O)[O-])CC(=O)[O-])CC(=O)[O-].[Fe+3] [[Fe(EDTA)]^−]
redox potential [1]: approximately 300 mV

R1 (T1 relaxivity) ([3]; 4.7 Tesla MRI scanner, complex alone): 2.5 mM⁻¹ s⁻¹ | R1 with HSA ([3]; 4.7 Tesla, with human serum albumin): 3.4 mM⁻¹ s⁻¹ | Elimination by the biliary system (gall bladder enhancement) (mice; 50 μmol/kg, 30′ and 4 h post-injection): strong enhancement of the gall bladder | Removal from the blood (mice; 50 μmol/kg, vs. Gd-DTPA): faster removal from the blood | Uptake in kidneys and liver (mice; 50 μmol/kg, vs. Gd-DTPA): Greater uptake
SMILES: CC([O-])CN1CCN(Cc2ccccc2)CCN(CC(C)[O-])CC1.[Fe+3] (stereo not drawn) [Fe(TOB)]
T1 contrast in kidneys (mice; [4]): greater contrast than Gd(DTPA) in kidney and liver | T1 contrast in liver (mice; [4]): greater contrast than Gd(DTPA) in kidney and liver | Tissue with highest signal (T1 relaxivity differences in tissue) (mice; 0.20 mL of 6.3 mM Fe-TOB-HSA, 30 minute period): highest signal is observed in the kidney cortex | Contrast of brain tumors (brain tumors): produces contrast of brain tumors in mice
